# Reference: patent US10144746B2 (GLOBAL BLOOD THERAPEUTICS, INC., priority 2015, dated 2018)
# Structures can show the parent of a compound that is named as a salt.
# Molecular target: Human plasma kallikrein (Homo sapiens (Human), UniProt P03952)
# Assay: In vitro plasma kallikrein inhibition assay (chromogenic substrate D-Pro-Phe-Arg-pNa, absorbance at 405 nm, IC50 determination)
# Format: biochemical
# Conditions: not given
# Protocol: In Vitro Plasma Kallikrein Inhibition Assay
# The chromogenic substrate D-Pro-Phe-Arg-pNa, 2HCl (BIOPHEN CS-31(02) from Hyphen BioMed, Neuville-Sur-oise, France) was dissolved in 5 mL deionized water and stored at 4° C. […] All other chemicals were of analytical grade.
# A stock solution of 7 μM in 50% glycerol was stored at −20° C.
# Enzyme reactions were conducted in “assay buffer” comprised of 20 mM HEPES at pH 7.4, 150 mM NaCl, 0.1% PEG-8000 and 0.01% Triton X-100.
# Both enzyme and substrate were diluted in assay buffer.
# Plate measurements were conducted using a SPECTROStar Nano reader (BMG Labtech, San Francisco, Calif., USA). […] We used discrete wavelength, precise, kinetic reads of 15 cycles with a 60 sec cycle time.
# Determination of IC50 values
# The test compound was dissolved in 100% DMSO. The compounds were serially diluted in DMSO in a 7 point dose response. For the assays, 66.5 μL of protease solution (protease in assay buffer) was added per well followed by the addition of 8.5 μL of compound in 100% DMSO. […] After 30 min. incubation at room temperature on an orbital shaker, the reactions were started by the addition of 10 μL substrate solution (in assay buffer, final assay concentration was 600 uM). After the addition of the substrate solution the final DMSO concentration was 10%. The plate was placed again on the shaker for 5 sec, spun at 2000 rpm for 5 sec and read on the spectrophotometer. […] The IC50 value was calculated from the plot of rate vs. inhibitor concentration by a 4 parameter logistic equation: y=A+((B−A)/([…]))
# where y is the rate at the inhibitor concentration, x. A is the minimum y value at the highest inhibitor concentration and B is the y value in the absence of inhibitor, C is the IC50 value and D is the slope factor. The curve fitting was conducted with the non-linear regression routine of the analysis software XLfit (IDBS, version 5.3.1).
# Sequence of Human plasma kallikrein (P03952 391-638): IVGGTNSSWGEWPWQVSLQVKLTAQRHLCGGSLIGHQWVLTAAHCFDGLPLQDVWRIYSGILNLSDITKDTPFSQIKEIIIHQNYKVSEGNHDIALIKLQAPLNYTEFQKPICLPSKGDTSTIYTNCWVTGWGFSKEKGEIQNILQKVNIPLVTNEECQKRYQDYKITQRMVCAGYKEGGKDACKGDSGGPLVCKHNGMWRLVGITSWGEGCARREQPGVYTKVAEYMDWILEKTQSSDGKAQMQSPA
# Sequence of Human plasma kallikrein (P03952 20-390 partner): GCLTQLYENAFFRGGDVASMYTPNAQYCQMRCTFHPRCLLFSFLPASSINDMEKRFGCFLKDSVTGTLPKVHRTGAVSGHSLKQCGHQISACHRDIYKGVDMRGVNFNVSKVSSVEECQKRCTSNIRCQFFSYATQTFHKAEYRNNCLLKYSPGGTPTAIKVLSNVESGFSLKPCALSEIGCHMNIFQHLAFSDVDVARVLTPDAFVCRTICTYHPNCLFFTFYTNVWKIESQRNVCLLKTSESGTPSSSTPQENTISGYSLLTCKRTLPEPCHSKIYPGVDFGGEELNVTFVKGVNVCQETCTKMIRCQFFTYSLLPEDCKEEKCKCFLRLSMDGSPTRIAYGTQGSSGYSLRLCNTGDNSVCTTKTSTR
row,Compound,KLKB1 pIC50
1,Cc1c(CNC(=O)c2ccc3c(c2)C2OC3c3ccc(-c4cccc(F)c4F)cc32)c(F)cc2c1CNC2 (stereo not shown),5
2,"(±)-N-[(6-amino-2,4-dimethyl- pyridin-3-yl)methyl]-12-(2,4- difluorophenyl)-11-methyl-15- oxatetracyclo[6.6.1.0^2,^7.0^9,1^4] pentadeca-2,4,6,9(14),10,12- hexaene-4-carboxamide and (±)-N-[(6-amino-2,4- dimethylpyridin-3-yl)methyl]-11- (2,4-difluorophenyl)-12- methyl-15-oxatetracyclo [6.6.1.0^2,^7.0^9,1^4]pentadeca- 2,4,6,9(14),10,12-hexaene-4- carboxamide [Example 310]",7.7
3,"(±)-N4-[(6-amino-2,4- dimethylpyridin-3-yl)methyl]- 11-cyano-15-oxatetracyclo- [6.6.1.0^2,^7.0^9,1^4]pentadeca- 2,4,6,9,11,13-hexaene-4,12- dicarboxamide and (±)-N4-[(6- amino-2,4-dimethylpyridin-3- yl)methyl]-12-cyano-15- oxatetracyclo[6.6.1.0^2,^7.0^9,1^4] pentadeca-2,4,6,9,11,13- hexaene-4,11-dicarboxamide [Example 333]",5.64
4,Cc1cc(N)nc(C)c1CNC(=O)c1ccc2c(c1)C1OC2c2ccc(-c3ccccc3F)cc21 (stereo not shown),6.91
5,"COc1cc(N)nc(C)c1CNC(=O)c1ccc2c(c1)C1OC2c2ccc(-c3ccc(Cl)c(F)c3F)cc21 (stereo not shown) [Example 109, trifluoroacetate salt]",7.59
6,"NC(=NO)c1ccc(CNC(=O)c2ccc3c(c2)[C@@H]2O[C@H]3c3ccc(-c4ccccc4F)cc32)cc1 [Example 204, (1R,8S)-12-(2-fluorophenyl)-N-{[4-(N′-hydroxycarbamimidoyl)phenyl]methyl}-15-oxatetracyclo[6.6.1.0^2,^7.0^9,1^4] pentadeca-2,4,6,9,11,13-hexaene-4-carboxamide]",6.03

# Same assay, conditions: read-out: KLKB1 pIC50 (converted)
row,Compound,IC50
1,"Cc1cc(N)nc(C)c1CNC(=O)c1ccc2c(c1)[C@@H]1O[C@H]2c2ccc(C(=O)c3cccc(F)c3)cc21 (single isomer, unassigned) [Example 228]",12 nM
2,Cc1cc(N)nc(C)c1CNC(=O)c1ccc2c(c1)C1OC2c2ccc(-c3ccc(Cl)c(F)c3F)cc21 (racemic) [Example 106],22.9 nM
3,"N=C(N)c1cccc(NC(=O)c2ccc3c(c2)[C@@H]2O[C@H]3c3ccc(-c4ccc(F)cc4F)cc32)c1 (single isomer, unassigned) [Example 258]",10000 nM
4,"Cc1cnn(Cc2ccc3c(c2)C2OC3c3ccc(C(=O)NCc4c(C)cc5c(c4C)CNC5)cc32)c1 (racemic) [Example 162, (±)-N-[(4,6-dimethyl-2,3-dihydro-1H-isoindol-5-yl)methyl]-12-[(4-methyl-1H-pyrazol-1-yl)methyl]-15-oxatetracyclo [6.6.1.0^2,^7.0^9,1^4]-pentadeca-2,4,6,9,11,13-hexaene-4-carboxamide]",72.4 nM
5,"Nc1noc2ccc(NC(=O)c3ccc4c(c3)[C@@H]3O[C@H]4c4ccc(-c5ccc(F)cc5F)cc43)cc12 (single isomer, unassigned) [Example 245]",10000 nM
6,"Cc1cc(N)nc(C)c1CNC(=O)c1ccc2c(c1)[C@@H]1O[C@H]2c2ccc(-c3cn4ccccc4n3)cc21 (single isomer, unassigned) [Example 252]",93.3 nM
7,"Nc1noc2cc(CNC(=O)c3ccc4c(c3)[C@@H]3O[C@H]4c4ccc(-c5ccc(F)cc5F)cc43)ccc12 (single isomer, unassigned) [Example 205]",1000 nM
8,"Cc1cc(N)nc(C)c1CNC(=O)c1ccc2c(c1)[C@@H]1O[C@H]2c2ccc(Cn3ccccc3=O)cc21 (single isomer, unassigned) [Example 224]",1 nM
9,"Cc1cc(N)nc(C)c1CNC(=O)c1ccc2c(c1)[C@@H]1O[C@H]2c2ccc(NC(=O)c3ccccc3)cc21 (single isomer, unassigned) [Example 229]",10000 nM
10,"Cc1cc(N)nc(C)c1CNC(=O)c1cc(F)c2c(c1)C1OC2c2cc(-c3ccc(F)cc3)cc(C)c21 (racemic) [Example 398, N-[(6-amino-2,4-dimethyl-pyridin-3-yl)methyl]-6-fluoro-11-(4-fluorophenyl)-13-methyl-15-oxatetracyclo[6.6.1.0^2,^7.0^9,1^4] pentadeca-2,4,6,9(14),10,12-hexaene-4-carboxamide]",398 nM
11,"Cc1cc(N)nc(C)c1CNC(=O)c1ccc2c(c1)[C@@H]1O[C@H]2c2ccc(Cn3cc(F)cn3)cc21 (single isomer, unassigned) [Example 178]",1 nM
12,"Cc1ccc(-c2ccc3c(c2)[C@H]2O[C@@H]3c3ccc(C(=O)NCc4cccc5c(N)nccc45)cc32)c(C#N)c1 (single isomer, unassigned) [Example 216]",15.8 nM
13,"Cc1nc(N)cc(C(C)C)c1CNC(=O)c1ccc2c(c1)C1OC2c2ccc(-c3ccc(F)cc3F)cc21 (racemic) [Example 173, (±)-N-{[6-amino-2-methyl-4-(propan-2-yl)pyridin-3-yl]methyl}-12-(2,4-difluorophenyl)-15-oxatetra-cyclo[6.6.1.0^2,^7.0^9,1^4]pentadeca-2,4,6,9,11,13-hexaene-4-carboxamide]",3.02 nM
14,"CCOc1cc(N)nc(C)c1CNC(=O)c1ccc2c(c1)C1OC2c2ccc(Cn3cc(C)cn3)cc21 (racemic) [Example 134, (±)-N-[(6-amino-4-ethoxy-2-methylpyridin-3-yl)methyl]-12-[(4-methyl-1H-pyrazol-1-yl)methyl]-15-oxatetracyclo[6.6.1.0^2,^7.0^9,1^4]-pentadeca-2,4,6,9,11,13-hexaene-4-carboxamide]",2 nM
15,"Cc1cc(N)nc(C)c1CNC(=O)c1ccc2c(c1)[C@@H]1O[C@H]2c2ccc(Cc3ccccc3)cc21 (single isomer, unassigned) [Example 254]",19.1 nM
16,"Cc1cc(CN)cc(C)c1CNC(=O)c1ccc2c(c1)C1OC2c2ccc(-c3ccc(F)cc3F)cc21 (racemic) [Example 147, (±)-N-{[4-(aminomethyl)-2,6-dimethylphenyl]-methyl}-12-(2,4-difluorophenyl)-15-oxatetracyclo[6.6.1.0^2,^7.0^9,1^4] pentadeca-2,4,6,9,11,13-hexaene-4-carboxamide]",372 nM
17,"Cc1cc(C(=N)N)ccc1CNC(=O)c1ccc2c(c1)[C@@H]1O[C@H]2c2ccc(-n3cccn3)cc21 (single isomer, unassigned) [Example 312]",1 nM
18,"COc1ccc(-c2ccc3c(c2)[C@H]2O[C@@H]3c3ccc(C(=O)NCc4c(C)cc(N)nc4C)cc32)c(F)n1 (single isomer, unassigned) [Example 177]",117 nM
19,"N=C(N)c1ccc(CNC(=O)c2ccc3c(c2)[C@@H]2O[C@H]3c3ccc(-c4ccc(F)cc4F)cc32)cn1 (single isomer, unassigned) [Example 268]",5.01 nM
20,"COc1cc(N)nc(C)c1CNC(=O)c1ccc2c(c1)C1OC2c2ccc(Cn3cc(C)cn3)cc21 (racemic) [Example 132, (±)-N-[(6-amino-4-methoxy-2-methylpyridin-3-yl)methyl]-12-[(4-methyl-1H-pyrazol-1-yl)-methyl]-15-oxatetracyclo[6.6.1.0^2,^7.0^9,1^4]-pentadeca-2,4,6,9,11,13-hexaene-4-carboxamide]",2 nM
21,"Cc1cc(C(=N)N)cc(C)c1CNC(=O)c1ccc2c(c1)[C@@H]1O[C@H]2c2ccc(-c3ccc(F)cc3F)cc21 (single isomer, unassigned) [Example 199]",0.741 nM
22,"COc1ccc(Cl)c(CNC(=N)c2ccc3c(c2)[C@@H]2O[C@H]3c3ccc(-c4ccc(F)cc4F)cc32)c1F (single isomer, unassigned) [Example 264]",2400 nM
23,"CN(C)C(=NC(=N)c1ccc(CNC(=O)c2ccc3c(c2)C2OC3c3ccc(-c4ccccc4)cc32)cc1)N(C)C (racemic) [Example 190, (±)-N-{[4-({[bis(dimethylamino)methylidene]-amino}methanimidoyl)phenyl]methyl}-12-phenyl-15-oxatetracyclo[6.6.1.0^2,^7.0^9,1^4] pentadeca-2,4,6,9,11,13-hexaene-4-carboxamide]",129 nM
24,"Cc1cc2c(c(C)c1CNC(=O)c1ccc3c(c1)C1OC3c3ccc(-c4c(C)cccc4F)cc31)CNC2 (racemic) [Example 124, (±)-N-[(4,6-dimethyl-2,3-dihydro-1H-isoindol-5-yl)methyl]-12-(2-fluoro-6-methylphenyl)-15-oxatetracyclo[6.6.1.0^2,^7.0^9,1^4] pentadeca-2,4,6,9,11,13-hexaene-4-carboxamide]",11500 nM
25,"N=C(N)c1ccc(CNC(=O)c2ccc3c(c2)[C@@H]2O[C@H]3c3ccc(-c4ccc(F)cc4F)cc32)nc1 (single isomer, unassigned) [Example 332]",63.1 nM
